Columns and labels:
[1] = test system: proinflammatory cytokines (IL-1I, IL-3, IL-6, IL-12, IL-17, MIP-1I, RANTES); assay: Pro-inflammatory cytokine production in serum; assay type: in vivo, mouse; conditions: CP used in combination with RV
Procedure: FIGS. 3A, 3B, 3C, 3D, 3E, 3F, and 3G are graphs showing pro-inflammatory cytokine response is abrogated by cisplatin. The response of IL-1I (FIG. 3A), IL-3 (FIG. 3B), IL-6 (FIG. 3C), IL-12 (FIG. 3D), IL-17 (FIG. 3E), MIP-1I (FIG. 3F) and RANTES (FIG. 3G) were measured after no treatment (control) or treatment with reovirus, cisplatin or the combination of reovirus and cisplatin.
(§1) For in vivo evaluation, subcutaneous B16.F10 tumors in C57Bl/6 mice or K1735 tumors in C3H mice were treated with intratumoral (i.t.) RV and intraperitoneal (i.p.) CP either alone or in combination. Tumor volume was estimated thrice weekly. Tumors and organs were harvested post-treatment for viral retrieval and histology; serum samples were tested for cytokine production and induction of neutralising anti-reovirus antibody (NARA). […] Tumors were measured on the days indicated and tumor volume expressed as tumor volume relative to volume at commencement of treatment (FIGS. 1A and 1B). […] Survival is expressed as Kaplan-Myer plots (FIGS. 1C and 1D). […] In contrast live virus was detected in only 50% of tumors from combination treated mice but in the liver of 4/6 mice.

[2] = test system: subcutaneous B16.F10 tumors in C57Bl/6 mice or K1735 tumors in C3H mice; assay: In vivo tumor growth and survival, i.t. RV and i.p. CP alone or in combination; parameters: species or system mouse; conditions: treated days 1 and 4, tumor model not stated
Procedure: C57Bl/6 (FIGS. 1A and 1C) and C3H (FIGS. 1B and 1D) mice bearing subcutaneous B16.F10 and K1735 tumors, respectively, were treated on days 1 and 4 with either reovirus alone via intratumoral (i.t.) injection (squares), cisplatin alone via intraperitoneal (i.p.) administration (triangles), or reovirus and cisplatin in combination (circles). Control treated mice (diamonds) received PBS. Tumors were measured on the days indicated and tumor volume expressed as tumor volume relative to volume at commencement of treatment (FIGS. 1A and 1B). Mice were euthanized when tumors exceeded 15 mm in any one dimension. Survival is expressed as Kaplan-Myer plots (FIGS. 1C and 1D).
as §1, with “weekly.” for “weekly. Tumors and organs were harvested post-treatment for viral retrieval and histology; serum samples were tested for cytokine production and induction of neutralising anti-reovirus antibody (NARA).”

[3] = test system: neutralizing anti-reovirus antibody (NARA); assay: Neutralising anti-reovirus antibody (NARA) response in serum; assay type: in vivo, mouse; conditions: CP used in combination with RV
Procedure: FIG. 2 is a graph showing the neutralizing anti-reovirus antibody (NARA) response after no treatment (control) or treatment with reovirus, cisplatin or the combination of reovirus and cisplatin.
For in vivo evaluation, subcutaneous B16.F10 tumors in C57Bl/6 mice or K1735 tumors in C3H mice were treated with intratumoral (i.t.) RV and intraperitoneal (i.p.) CP either alone or in combination. Tumor volume was estimated thrice weekly. Tumors and organs were harvested post-treatment for viral retrieval and histology; serum samples were tested for cytokine production and induction of neutralising anti-reovirus antibody (NARA). […] C57Bl/6 (FIGS. 1A and 1C) and C3H (FIGS. 1B and 1D) mice bearing subcutaneous B16.F10 and K1735 tumors respectively were treated on days 1 and 4 with either reovirus alone i.t. (squares), cisplatin alone i.p. (triangles), or reovirus and cisplatin in combination (circles). Control treated mice (diamonds) received PBS. Tumors were measured on the days indicated and tumor volume expressed as tumor volume relative to volume at commencement of treatment (FIGS. 1A and 1B). Mice were euthanized when tumors exceeded 15 mm in any one dimension. Survival is expressed as Kaplan-Myer plots (FIGS. 1C and 1D). […] In contrast live virus was detected in only 50% of tumors from combination treated mice but in the liver of 4/6 mice.

With `N.N.[Cl][Pt][Cl]` [CP, cisplatin] the “production of proinflammatory cytokines to RV” value [1] was “marked attenuation”, the “Mean relative tumor volumes ±SD” value ([2]; day 12, volume relative to commencement of treatment) was 9.87±2.80 and the Median survival ([2]; euthanized when tumors exceeded 15 mm) was 8 days. The “neutralizing anti-reovirus antibody (NARA) response to RV” value [3] was “did not affect”.
